Laboratory results reported in patent US20220112225A1, “ANANDAMIDE COMPOUNDS” (priority 2019, published 2022).

Key:
[1] = PO JVC rat terminal PK study at 20 mg/kg (tissue distribution); format: in vivo; conditions: rat brain after Compound 3 at 20 mg/kg PO, before the more sensitive method
Method: Compound 3 was orally dosed at 20 mg/kg to a group of nine, jugular vein cannulated, individually housed male Sprague Dawley rats that were fasted overnight and fed 4 h post-dose to assess its tissue distribution profile. Dosing was performed with 5 mL/kg dosing volumes with 5% DMSO, 95% water used as a dosing vehicle. Terminal blood samples (>230 μL) were taken from groups of 3 animals at each of 3 time-points post dose (1 h, 2 h, and 4 h) by cardiac puncture under CO2 into heparinised Eppendorf tubes (containing 5 μL heparin) on ice containing an equal quantity of water. Two 100 μL aliquots were then placed in duplicate 96 well plates on dry ice. Immediately after blood sampling, brain and eye pair samples were excised, weighed, rinsed, blotted, and snap frozen in liquid N2. Samples were stored in the freezer at −20° C. until bioanalysis.
Tissue samples were weighed and a volume of water 3 times the mass added to samples before homogenization. In the case of eyeballs the lens could not be homogenized, but all other tissues homogenized. The resulting data (tissue distribution parameters) are shown below in Table 2.

[2] = Brain homogenate re-analysis for Compound 2 after PO Compound 3 at 20 mg/kg; format: in vivo; conditions: after dosing Compound 3
Method: Re-analysis of the brain tissues harvested above (see Example 4) was conducted according to the following procedures and the data are shown in Table 3. • 1. 100 μL of brain homogenate was transferred to a 2 mL square matrix deep well plate, • 2. 300 μL acetonitrile (ACN) containing IS was dispensed on to the samples and mixed on a shaker. • 3. The samples were centrifuged for 15 min at 3500 rpm. • 4. 300 μL supernatant was transferred in to a fresh 2 mL square matrix deep well plate. • 5. Samples were concentrated using nitrogen then reconstituted in 80 μL of 50:50 ACN:MilliQ water and shaken on a plate shaker. • 6. Samples were then analyzed by LC-MS-MS.

[3] = In vitro brain homogenate stability, mouse; format: in vitro ADME; conditions: for half-life at 1 μM: 37° C., test compound at 1 μM, read-out: Mouse t1/2; for Clearance in brain homogenate stability study (in words): one hour incubation, increasing formation of Compound 2
Method: (§1) Fresh rodents brains were snap frozen immediately after collection and the assay performed on the same day. Brains were pre-incubated at 37° C. before being spiked with test compound at 1 μM. Samples were collected across 6 time points (0, 10, 20, 30, 45 and 60 minutes) and crashed in cold acetonitrile containing an internal standard (Leucine Enkephalin) and kept on ice until all samples had been collected. The samples were then shaken and centrifuged. 100 μL of supernatant was transferred to a plate containing 50 μL of MilliQ water and mixed. These plates were analyzed by LC-MS/MS over the 6 time points, where the percentage of test compound remaining was calculated using the peak area of the initial timepoint (T=0 minutes) as 100%. The natural log of the percentage remaining was then calculated. The natural log of the percentage remaining versus time (minutes) was plotted on a graph and the gradient of this graph was used to calculate the elimination rate constant (K), The half-life (t1/2) of test compound was calculated using the natural log of 2 divided by the elimination rate constant. The percentage of Compound 2 formed is reported below in Tables 4-6. FIGS. 9A-9F show results of the brain homogenate stability conducted with representative compounds of the Examples.

hMfsd2a [4] = molecular target: T1, hMfsd2a (Homo sapiens, UniProt Q8NA29); assay: In vitro Mfsd2a transport, UPLC-MS-MS analysis; format: cell-based; conditions: transfected HEK293 cells, 50 μM test compound, 1 hour
T1 construct: expressed in transfected cells; host or cells: HEK293
T1 sequence (Q8NA29 1-530 isoform Q8NA29-2): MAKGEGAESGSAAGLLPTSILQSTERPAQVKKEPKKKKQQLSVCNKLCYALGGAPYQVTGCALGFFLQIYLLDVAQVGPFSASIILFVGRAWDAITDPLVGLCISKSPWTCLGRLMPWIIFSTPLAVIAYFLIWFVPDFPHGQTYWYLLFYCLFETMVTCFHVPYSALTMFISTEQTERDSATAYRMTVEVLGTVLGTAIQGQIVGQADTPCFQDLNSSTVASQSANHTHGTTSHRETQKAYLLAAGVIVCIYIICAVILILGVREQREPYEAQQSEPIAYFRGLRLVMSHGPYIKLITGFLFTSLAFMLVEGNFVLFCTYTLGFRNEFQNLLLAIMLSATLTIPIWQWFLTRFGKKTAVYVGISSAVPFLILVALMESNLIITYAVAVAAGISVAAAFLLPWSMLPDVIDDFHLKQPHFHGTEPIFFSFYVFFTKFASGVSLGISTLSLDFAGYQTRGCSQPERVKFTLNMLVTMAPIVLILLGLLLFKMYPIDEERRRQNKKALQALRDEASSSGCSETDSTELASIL
Method: (§2) The assay was conducted in a low throughput 6-well format with HEK293 cells prepared and then transfected in duplicate wells with plasmids containing either the wildtype (WT) version of hMfsd2a, the D97A mutant version, or an empty vector as control. Uptake into the ceils was assessed by both thin-layer chromatography (TLC) and ultrahigh performance liquid chromatography hyphenated mass spectrometry.
(§3) HEK293 cells were seeded at 6.25×10^5 per 6-well in 2 mL of DMEM with 10% FBS and 1% penicillin-streptomycin (P/S) media (Sigma) and incubated overnight at 37° C. in 5% CO2. Cells were checked for confluency the next morning. On a per well basis the following lipid mix was generated, 6 μL of Lipofectamine 2000 was added dropwise to 200 μL of OptiMEM, this was left to stand for 5 minutes at room temperature (RT). 1 μg of hMfsd2a WT, D97A or empty plasmid was prepared in 200 μL of OptiMEM as appropriate for each well; the Lipofectamine 2000 in OptiMEM solution was then added dropwise to a total volume of 400 μL (this can be scaled to support the number of wells/plates to be assayed). This transfection preparation was then incubated at RT for 20 minutes. DMEM with 10% FBS and no P/S media was warmed to 37° C., the HEK293 plate media was changed and the cells washed carefully with 1 mL of the warmed DMEM with 10% FBS no P/S media, 1.6 mL of the warmed DMEM with 10% FBS no P/S media was then added to each well. 400 μL of the transfection preparation was then added dropwise to each well as appropriate and the plate was gently swirled in a circular motion. The plate was then incubated overnight at 37° C. in 5% CO2.
(§4) Compound Incubation and Preparation of Analysis Samples Compound stock solutions were prepared in a 12% BSA in PBS solution such that a 40 μL spike into 2 ml, of plain DMEM would yield a concentration of 50 μM of test compound (the compound treated media). Remaining compound stock solution in 12% BSA in PBS was frozen at −20° C. to allow for media stability testing. The HEK293 6-well plate was removed from the incubator and the wells gently rinsed with 1 mL of plain DMEM that had been prewarmed to 37° C. 2 mL of the compound treated media was then added to each well. A 100 μL sample of the compound treated media was sampled to represent a T=0 h sample; 5 μL of this sample (the remainder was reserved and frozen in case of re-analysis being required) was diluted with 45 μL of DMEM and crashed with 50 μL MeCN in a 96-well plate which was sealed and kept on ice. The HEK293 6-well plate was then incubated at 37° C. in 5% CO2 for 1 hour, the plate was then removed from the incubator and a 100 μL sample of media taken from each well to represent a T=1 h sample; 5 μL of this sample (the remainder was reserved and frozen in case of re-analysis being required) was diluted with 45 μL of DMEM and crashed with 50 μL MeCN into the 96-well plate which was re-sealed and stored at −20° C. The remaining media was then removed from the HEK293 6-well plate, the wells were gently rinsed twice with 1 mL of 0.5% BSA in DMEM, the media was then removed and the 6-well plate allowed to dry completely at RT. 1 ml of 3:2 Hexane:Isopropanol (HIP) was added to each well in a fume cupboard and the plate allowed to stand for 30 minutes at RT without shaking. The HIP solution was then transferred to 2 mL Eppendorf tubes, and the process was repeated with a second 1 mL aliquot of HIP and the two aliquots combined. The HIP samples were then dried down under a nitrogen stream.
HIP samples prepared as described above were reconstituted in 100 μL of MeCN, vortex mixed and inverted multiple times to ensure all surfaces of the Eppendorf tube were rinsed with the MeCN and finally pulse centrifuged. […]

hMfsd2a [5] = molecular target: T1, hMfsd2a; assay: In vitro Mfsd2a transport, thin layer chromatography (TLC) analysis; format: cell-based; conditions: transfected HEK293 cells, 50 μM test compound, 1 hour, iodine and cupric acetate stain
Method: as §2, §3, §4
Silica gel plates were prepared in a fume cupboard by initially drawing a line 1.5 cm from the bottom edge of the plate and then drawing sample lanes with a width of 1 cm and a separation of 0.5 cm between lanes. TLC buffer for phospholipids was prepared as a 31:62:7 solvent mix of Methanol:Chloroform:Ammonium Hydroxide. Plates were pre-run in a humid chamber containing 200 mL of the TLC buffer until the solvent front was 1.5 cm from the plate edge, the plate was then allowed to dry. […]

[6] = In vitro brain homogenate stability, rat; format: in vitro ADME; conditions: for half-life at 1 μM: 37° C., test compound at 1 μM, read-out: Rat t1/2; for Clearance in brain homogenate stability study (in words): one hour incubation, increasing formation of Compound 2
Method: as §1

SMILES	Detection of Compound 2 in brain tissues, first analysis [1]	Detection of Compound 2 in the brain, in-vivo rat CNS penetration data using Compound 3 [2]	half-life at 1 μM [3]	Clearance in brain homogenate stability study (in words) [3]	Transport via Mfsd2a: concentration in HIP samples from WT cells compared with D97A mutant Mfsd2a and/or empty vector cells (hMfsd2a [4])	Transport via Mfsd2a: TLC band intensity in WT cells compared with D97A mutant Mfsd2a and/or empty vector cells (hMfsd2a [5])	half-life at 1 μM [6]	Clearance in brain homogenate stability study (in words) [6]
CCCCC/C=C\C/C=C\C/C=C\C/C=C\CCCC(=O)NCCO [Compound 2, (5Z,8Z,11Z,14Z)—N-(2-hydroxyethyl)icosa-5,8,11,14-tetraenamide, reference compound]	not detected above the lower limit of quantification	detected in the brain						
CCCCC/C=C\C/C=C\C/C=C\C/C=C\CCCC(=O)NCCOP(=O)(O)OCCN [Compound 4, 2-ammonioethyl (2-((5Z,8Z,11Z,14Z)-icosa-5,8,11,14-tetraenamido)ethyl) phosphate]			2 h	demonstrated a level of clearance	transported via Mfsd2a	transported via Mfsd2a	1.27 h	demonstrated a level of clearance
CCCCC/C=C\C/C=C\C/C=C\C/C=C\CCCC(=O)NCCOP(=O)(O)OCC(N)C(=O)O (stereo not shown) [Compound 5, 2-ammonio-2-carboxyethyl (2-((5Z,8Z,11Z,14Z)-icosa-5,8,11,14-tetraenamido)ethyl) phosphate]			4.3 h	demonstrated a level of clearance	cannot be confirmed if the compound is transported via Mfsd2a	transported via Mfsd2a	2.1 h	demonstrated a level of clearance
CCCCC/C=C\C/C=C\C/C=C\C/C=C\CCCC(=O)NCCOC(=O)OCCOP(=O)([O-])OCC[N+](C)(C)C [Compound 6, 2-(((2-((5Z,8Z,11Z,14Z)-icosa-5,8,11,14-tetraenamido)ethoxy)carbonyl)oxy)ethyl (2-(trimethylammonio)ethyl) phosphate]					transported via Mfsd2a	transported via Mfsd2a		
CCCCC/C=C\C/C=C\C/C=C\C/C=C\CCCC(=O)NCCOC(=O)OCCCOP(=O)([O-])OCC[N+](C)(C)C [Compound 7, 3-(((2-((5Z,8Z,11Z,14Z)-icosa-5,8,11,14-tetraenamido)ethoxy)carbonyl)oxy)propyl (2-(trimethylammonio)ethyl) phosphate]					transported via Mfsd2a	transported via Mfsd2a		
CCCCC/C=C\C/C=C\C/C=C\C/C=C\CCCC(=O)NCCOC(=O)NCCOP(=O)([O-])OCC[N+](C)(C)C [Compound 8, 2-(((2-((5Z,8Z,11Z,14Z)-icosa-5,8,11,14-tetraenamido)ethoxy)carbonyl)amino)ethyl (2-(trimethylammonio)ethyl) phosphate]					transported via Mfsd2a	transported via Mfsd2a		
CCCCC/C=C\C/C=C\C/C=C\C/C=C\CCCC(=O)NOC(C)(O)COP(=O)([O-])OCC[N+](C)(C)C (stereo not shown) [Compound 20, 2-hydroxy-2-(((5Z,8Z,11Z,14Z)-icosa-5,8,11,14-tetraenamido)oxy)propyl (2-(trimethylammonio)ethyl) phosphate]					transported via Mfsd2a	cannot be confirmed if the compound is transported via Mfsd2a		
